From publication PMC3082897 (2010)
Read-outs that look alike come from different tables or passages of the source.

Key:
[1] = molecular target: T1, UMPKmt (uridine monophosphate kinase, Rv2883c) (Mycobacterium tuberculosis, UniProt P9WHK5); assay: coupled spectrophotometric kinase assay; type: biochemical
Target sequence in this assay (P9WHK5 whole entry, looked up): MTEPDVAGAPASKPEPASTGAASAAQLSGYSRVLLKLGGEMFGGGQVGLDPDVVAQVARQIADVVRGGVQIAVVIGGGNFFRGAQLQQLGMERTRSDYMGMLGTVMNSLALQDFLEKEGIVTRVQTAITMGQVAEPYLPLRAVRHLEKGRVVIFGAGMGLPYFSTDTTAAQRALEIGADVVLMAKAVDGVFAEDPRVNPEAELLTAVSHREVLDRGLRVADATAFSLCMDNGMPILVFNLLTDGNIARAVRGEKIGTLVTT

[2] = tested on: O=c1ccn([C@@H]2O[C@H](COP(=O)(O)O)[C@@H](O)[C@H]2O)c(=O)[nH]1; assay: purified protein
[3] = molecular target: T1, UMPKmt (uridine monophosphate kinase, Rv2883c); assay: X-ray crystal structure; type: biochemical
Target sequence in this assay (P9WHK5 whole entry): as the sequence (P9WHK5 whole entry, looked up) above

[4] = molecular target: T1, UMPKmt (uridine monophosphate kinase, Rv2883c); assay: coupled spectrophotometric kinase assay; type: biochemical; remark: listed apart in the source
Target sequence in this assay (P9WHK5 whole entry, looked up): as above

[5] = molecular target: T1, UMPKmt (uridine monophosphate kinase, Rv2883c); assay: coupled spectrophotometric kinase assay; type: biochemical; remark: listed apart in the source
Target sequence in this assay (P9WHK5 whole entry, looked up): as above

Molecule | IC50 [1] | also measured
O=c1[nH]c(=O)n([C@@H]2O[C@H](COP(=O)(O)OP(=O)(O)OP(=O)(O)O)[C@@H](O)[C@H]2O)cc1I [5I-UTP] | 20 µM | –
UMPKmt (uridine monophosphate kinase, Rv2883c) (Mycobacterium tuberculosis H37Rv) | – | Km [2]: 19.6 ± 1.8 µM
O=c1[nH]c(=O)n([C@@H]2O[C@H](COP(=O)(O)OP(=O)(O)OP(=O)(O)O)[C@@H](O)[C@H]2O)cc1Br [5Br-UTP] | 100 µM | –
Nc1nc2c(ncn2[C@@H]2O[C@H](COP(=O)(O)OP(=O)(O)OP(=O)(O)O)[C@@H](O)[C@H]2O)c(=O)[nH]1 [GTP] | – | EC50 [3]: 100 µM
Cc1cn([C@H]2C[C@H](O)[C@@H](COP(=O)(O)OP(=O)(O)OP(=O)(O)O)O2)c(=O)[nH]c1=O [dTTP] | 400 µM | –
O=c1ccn([C@H]2C[C@H](O)[C@@H](COP(=O)(O)OP(=O)(O)OP(=O)(O)O)O2)c(=O)[nH]1 [dUTP] | 240 µM | –
O=c1ccn([C@@H]2O[C@H](COP(=O)(O)OP(=O)(O)OP(=O)(O)O)[C@@H](O)[C@H]2O)c(=O)[nH]1 [UTP] | – | IC50 [4]: 100 µM
Nc1nc2c(ncn2[C@H]2C[C@H](O)[C@@H](COP(=O)(O)OP(=O)(O)OP(=O)(O)O)O2)c(=O)[nH]1 [dGTP] | – | coupled spectrophotometric kinase assay (activation, similar to GTP) [5]: dGTP, Mant-GTP and 6-methylthio GTP exhibited similar properties to GTP in terms of both affinity and extent of activation
